{"source": "paper PMC11363324", "about": "(ACS Central Science, 2024)", "key": {"C57BL/6J mice [1]": {"system": "C57BL/6J mice", "settings": "mouse, in vivo"}, "C57BL/6J mice [2]": {"system": "C57BL/6J mice", "assay": "animal or person", "assay_type": "in vivo", "settings": "Mus musculus, sc, read-out: antinociception ED50 (and 95% CI)"}}, "data": [{"compound": "CN1CC[C@]23c4c5ccc(O)c4O[C@H]2[C@@H](O)C=C[C@H]3[C@H]1C5", "note": "[Morphine]", "values": [{"measurement": "withdrawal: jumping frequency vs saline", "setting": "C57BL/6J mice [1]; C57BL/6J", "result": "****p < 0.0001"}, {"measurement": "withdrawal: teeth chattering frequency vs saline", "setting": "C57BL/6J mice [1]; C57BL/6J", "result": "***p = 0.0003"}, {"measurement": "withdrawal: forepaw licking frequency vs saline", "setting": "C57BL/6J mice [1]", "result": "significant"}, {"measurement": "withdrawal: rearing frequency vs saline", "setting": "C57BL/6J mice [1]", "result": "significant"}, {"measurement": "ED50", "setting": "C57BL/6J mice [2]", "result": 4, "unit": "mg/kg"}]}]}
